According to patent US9603813B2, “Visual performance and/or macular pigmentation” (Howard Foundation Holdings Limited, priority 2011, dated 2017):

Assays:
Bovan Goldline hens = test: Carotenoid contents of egg yolks from hens fed mixed carotenoids (HPLC)
Experimental: Eight Bovan Goldline hens were obtained at approximately 18 weeks of age.
When the hens were producing at least 8 eggs per day in total, the hens were isolated and fed only a commercial meal. […] The premix provided 250 mg MZ/kg feed with proportions of L 50, MZ 30, Z 20.
The yolk carotenoids were measured in mixtures prepared from all eggs collected at baseline, three and six weeks.
Yolks were individually weighed and mixed with phosphate-buffered saline and made up to 50 ml. Two ml of each suspension was mixed in a separate universal tube for each of the three batches separately and stored at −40 C.
The egg yolk suspension (0.1 ml) was mixed with 0.15 ml aqueous KOH (25 gl100 mlwater), 0.15 ml absolute ethyl alcohol and 0.1 ml echinenone (internal standard, 0.4 mg/500 ml ethyl alcohol) in a glass extraction tube and incubated at 45 C for 45 minutes.
Solutions were then cooled and mixed vigorously with 1.5 ml hexane (containing BHT500 mg/l) and centrifuged to separate the hexane and aqueous layers. One ml of the upper hexane layer was transferred to an evaporating tube and the residue was re-extracted with 1.5 ml hexane. After centrifuging, 1.5 ml of the upper layer was removed and the extracts combined and evaporated to dryness under nitrogen at 40 C. The residue was made up to 0.15 ml with mobile phase (see Ultracarb HPLC below) and 0.1 ml was injected onto a Ultra Carb Column for HLPC analysis.
Separation and quantitation of the MZ was achieved using a two column procedure.
Ultracarb procedure: Extracts prepared as described above were reconstituted in a mobile phase comprising acetonitrile:methanol (85:15 containing 0.1% triethylamine). Using the same solvent mixture at 1.5 ml/min, extracts were chromatographed isocratically using a 3 micro m Ultracarb ODS column (250×4.6 mm, Phenomenex, UK) and detected using a photodiode-array detector (model 2996, Waters Ltd) to quantify L and Z+MZ at 450 nm. Eluent that coincided with the emergence of MZ+Z was collected from the waste line and evaporated to dryness under nitrogen.
Chiral chromoatography: The Z+MZ extract was then reconstituted in 0.1 ml of hexane:isopropanol (90:10) and 50 uL was chromatographed on a 10 micro m Chiralpak® AD column (250×4.6 mm; Chiral Technologies Europe, 67404 Illkirch Cedex, France) to determine the proportion of MZ and Z isomers using gradient elution at 0.8 ml/min starting with 90% hexane and 10% isopropyl alcohol and increasing to 95% hexane in a linear gradient over 30 minutes.

[1] = Plasma carotenoids in one person consuming one egg per day (HPLC); details: human, in vivo
Experimental: The objective of this study was to feed hens a mixture of L, MZ and Z to determine the total amount of MZ in the yolk. In addition 24 eggs collected at the end of the experiment were consumed by one subject, one egg/day and the blood MZ composition determined.
Blood (10 ml) from a human subject was collected in lithium heparin tubes at baseline, day 12 and day 24 after consumption of one egg per day and centrifuged to provide plasma subsequently stored at −40 C. Plasma, 0.25 ml was mixed with 0.2 ml sodium dodecyl sulphate, 0.4 ml ethyl acetate (internal standard). Hexane containing BHT (1.0 ml) was added and the mixture extracted vigorously for 4 minutes, centrifuged for 10 mins and 0.7 ml of the upper hexane layer removed and evaporated to dryness.
The residue was made up to 0.1 ml with mobile phase (see HPLC procedure below) and 0.05 ml was injected onto the column.

[2] = feeding 250 ppm of the carotenoid mixture for 3 weeks

## CC1=C(/C=C/C(C)=C/C=C/C(C)=C/C=C/C=C(C)/C=C/C=C(C)/C=C/C2=C(C)C[C@H](O)CC2(C)C)C(C)(C)C[C@H](O)C1 [MZ, (trans, 3R, 3′S meso)-zeaxanthin]
Bovan Goldline hens; Weeks 0 (baseline)
  contents of egg yolks from chicken fed 250 mg/kg mixed carotenoids: 0 micro grams per yolk
Bovan Goldline hens; Weeks 3
  contents of egg yolks from chicken fed 250 mg/kg mixed carotenoids: 315 micro grams per yolk
Bovan Goldline hens; Weeks 6
  contents of egg yolks from chicken fed 250 mg/kg mixed carotenoids: 272 micro grams per yolk
Bovan Goldline hens; [2]
  content of egg yolks: 2.78 mg MZ/yolk
  share of the yolk carotenoid content: 11%

## CC1=C(/C=C/C(C)=C/C=C/C(C)=C/C=C/C=C(C)/C=C/C=C(C)/C=C/C2=C(C)C[C@@H](O)CC2(C)C)C(C)(C)C[C@H](O)C1 [Z, zeaxanthin]
Bovan Goldline hens; Weeks 0 (baseline)
  contents of egg yolks from chicken fed 250 mg/kg mixed carotenoids: 278 micro grams per yolk
Bovan Goldline hens; Weeks 3
  contents of egg yolks from chicken fed 250 mg/kg mixed carotenoids: 366 micro grams per yolk
Bovan Goldline hens; Weeks 6
  contents of egg yolks from chicken fed 250 mg/kg mixed carotenoids: 328 micro grams per yolk
Bovan Goldline hens; [2]
  share of the yolk carotenoid content: 13%

## CC1=C[C@H](O)CC(C)(C)[C@H]1/C=C/C(C)=C/C=C/C(C)=C/C=C/C=C(C)/C=C/C=C(C)/C=C/C1=C(C)C[C@@H](O)CC1(C)C [L, lutein]
[1]
  concentration at 12 day: 1200 nM
  concentration at 24 day: 1060 nM
  contents of plasma in one person consuming one egg per day: 0.55 micro moles per litre
Bovan Goldline hens; Weeks 0 (baseline)
  contents of egg yolks from chicken fed 250 mg/kg mixed carotenoids: 563 micro grams per yolk
Bovan Goldline hens; Weeks 3
  contents of egg yolks from chicken fed 250 mg/kg mixed carotenoids: 2100 micro grams per yolk
Bovan Goldline hens; Weeks 6
  contents of egg yolks from chicken fed 250 mg/kg mixed carotenoids: 2260 micro grams per yolk
Bovan Goldline hens; [2]
  share of the yolk carotenoid content: circa 76%
